Measured values published in article PMC8253137, “Microbiota-derived butyrate is an endogenous HIF prolyl hydroxylase inhibitor” (Gut Microbes, 2021).
Like-named read-outs stand apart in the source and are kept apart here.

What was measured:
PHD2_181-402 [1] = target: T1, PHD2_181-402 (Homo sapiens, UniProt Q9GZT9); assay: PHD2_181-402 inhibition assay (bioluminescent succinate detection, Succinate-Glo); type: biochemical; details: for IC50: read-out: True IC50; for fold less effective at inhibiting PHD2_181-402 (compared to butyrate): relative to butyrate true IC50
T1 sequence (Q9GZT9 181-402): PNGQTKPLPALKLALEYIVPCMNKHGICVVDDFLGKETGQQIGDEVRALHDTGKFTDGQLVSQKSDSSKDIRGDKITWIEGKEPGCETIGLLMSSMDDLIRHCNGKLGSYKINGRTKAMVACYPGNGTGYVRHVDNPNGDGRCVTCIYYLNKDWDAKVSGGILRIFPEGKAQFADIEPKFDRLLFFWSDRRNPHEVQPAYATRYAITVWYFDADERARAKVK
Description: PHD2_181-402 activity and inhibition assays were performed with the Succinate-Glo JmjC Demethylase/Hydroxylase Assay Kit (Promega) according to manufacturer protocol and as detailed in Alves et al. […] The enzymatic reaction was incubated at room temperature for 10 minutes, after which succinate formation was detected according to manufacturer protocol. […] Then, 20 µL of Succinate Detection Reagent II was added to the reactions and incubated for 10 min at room temperature before the luciferase-generated luminescence was recorded on a plate-reading luminometer. Succinate standard curves were used to determine the sensitivity and linear range of the bioluminescent succinate detection. […] Succinate standards were serially diluted two-fold from 15 µM to 58.6 nM and a 0 succinate blank. 10 µL of succinate standards were used for detection as described above. […] Reactions were incubated at room temperature for 10 minutes and succinate detected. […] Measured IC50s were calculated from fitting the percentage activity data to the [Inhibitor] vs. normalized response – variable slope least squares nonlinear regression in GraphPad Prism 9. True IC50s were calculated from measured IC50s with the equation derived by Wu et al.[26] describing the relationship between the measured IC50 of an inhibitor and the percentage of substrate conversion.

HDACs = system: HDACs; parameters: method as in PMID 18061431, PMID 30052654; details: cited from earlier work
PHD2_181-402 [2] = target: T1, PHD2_181-402; assay: WaterLOGSY 1D NMR binding; details: 10 mM ligand, 25 μM PHD2_181-402
Excerpt: Next, we established whether butyrate binds directly to PHD2_181-402 using 1D WaterLOGSY NMR.[28] This method enables sensitive and robust detection of binding (dissociation constants as weak as μM to low mM) based on the magnetization transfer between water molecules, proteins, and ligands of interest in close proximity via dipolar proton–proton cross-relaxation (nuclear Overhauser effect, NOE). […] Binding and non-binding ligands can be distinguished in a WaterLOGSY spectrum via their opposite signs in relation to water for their corresponding peaks.
Following an established protocol, all NMR analyses were performed using PHD2_181-402 and the diamagnetic element (Zn^2+) rather than a paramagnetic element such as Fe^2+ that would result in inhibitive signal reduction or loss due to fast relaxation induced by the unpaired electron.[63]
Water-Ligand Observed via Gradient SpectroscopY (WaterLOGSY): Measurements were carried out on a 600 MHz triple-resonance Bruker cryoprobe spectrometer.[28] Selective water inversion was achieved using an iBURP shaped pulse with 15 ms length and an inversion bandwidth of 0.4 ppm. The mixing time was set to 1 s, and the water was suppressed using double Watergate. 1024 scans were acquired with an interscan delay of 2 s. The sample concentration was 25 µM of PHD2_181-402 mixed with 10 mM of the different ligands in NMR buffer (Tris 50 mM, NaCl 20 mM, ZnCl2 100 μM) at pH 6.5.

murine colon tissue [3] = assay: Rectal gavage in antibiotic-treated SCFA-depleted mice; type: in vivo; details: rectal 100 mM butyrate or 1.5 mM IOX2, 1 h, after antibiotics
Description: (§1) C57BL/6 mice were purchased from Jackson Laboratories. Animals were maintained and bred in standard housing conditions under 24 h/day, 7 days/week veterinary care available at the University of Colorado Anschutz Medical Campus (AMC) animal facility. All animal procedures were reviewed and approved by the Institutional Animal Care and Use Committee at AMC. 8 to 10-week-old male and female mice were pre-administered an antibiotic cocktail consisting of 1 mg/mL ampicillin, gentamicin, and neomycin, 0.5 mg/mL vancomycin, and 0.25 mg/mL metronidazole for 5 d ad libitum in addition to water control mice. Mice were then given 200 µL of tributyrin daily for three days using reusable feeding needles (18060–20, Fine Science Tools). On the third day, 4 h prior to sacrifice, select mice given tributyrin were rectally given 100 μL of 60 mM MCPA with plastic gavage tubes (FTP-20-38-50, Instech) inserted 1 cm into the rectum without surgical lubricant. Whole colon tissue at the site of the rectal gavage was collected for metabolite analysis, while colon whole tissue and epithelial scrapings upstream from the gavage site was collected for RNA and protein analysis. In the second butyrate reconstitution experiment, mice were rectally given 100 μL of 100 mM butyrate, 100 mM butyrate with 10 mM MCPA, 1.5 mM IOX2, or PBS control under anesthesia. Mice were then sacrificed 1 h after rectal supplementation and colon tissues collected for metabolite, mRNA, and protein analysis from the site of the rectal gavage.
(§2) TRIzol® reagent (ThermoFisher Scientific) was used to isolate total RNA from T84 cells. Mouse colon tissue samples were harvested into RNAlater™ (Invitrogen) and stored at 4°C for 48 h. Total RNA was isolated from the tissues using RNeasy Plus Mini Kit (Qiagen). cDNA was prepared using the iScript cDNA Synthesis Kit (Bio-Rad). Quantitative PCR analysis was performed using the Power SYBR™ Green master mix (Applied Biosystems) in a thermocycler. Fold change in expression of target mRNA relative to β-actin (ACTB) mRNA was calculated using the delta-delta Ct method. Primer sequences used are as follows: hBNIP3 – forward, 5′- […] −3′, reverse, 5′- […] −3′; hBNIP3L – forward, 5′- […] −3′, reverse, 5′- […] −3′; hGLUT1 – forward, 5′- […] −3′, reverse, 5′- […] −3′; hACTB – forward, 5′- […]-3′, reverse, 5′- […]-3′; mBnip3 – forward, 5′- […] −3′, reverse, 5′- […] −3′; mBnip3l – forward, 5′- […] −3′, reverse, 5′- […] −3′; mGlut1 – forward, 5′- […] −3′, reverse, 5′- […] −3′; and mActb – forward, 5′- […] −3′, reverse, 5′- […] −3′.
(§3) T84 cells were rinsed with PBS and collected and lysed in 200 µL of radioimmunoprecipitation assay (RIPA, 50 mM Tris-HCl pH 8.0, 1 mM EDTA, 1% Triton X-100, […], 0.5% sodium deoxycholate, 150 mM NaCl) buffer with protease inhibitors on ice. Mouse colon samples were harvested into 350 µL of RIPA buffer and flash frozen in liquid nitrogen. Samples were homogenized by sonication, and insoluble materials removed by centrifugation at 10,000 g for 5 min at 4°C. Protein quantity of the supernatant was determined using the Bradford reagent. Laemmli sample buffer was added to each sample. Samples (20 µg) were run and separated on 8% SDS-PAGE gels and transferred to polyvinylidene fluoride (PVDF) membranes. Membranes were blocked overnight at 4°C in Tris-buffered saline with 1% Tween-20 (TBS-T) and 5% milk. […]

T84 cells [4] = assay: 2-OG levels in T84 cells; type: cell-based; details: 3 h, 10 mM butyrate or 30 μM IOX2
Description: (§4) T84 cells were cultured in 95% air with 5% CO2 at 37°C in standard media made of DMEM:F-12 supplemented with 10% calf serum, 1% penicillin/streptomycin, and 1% GlutaMAX™ (ThermoFisher Scientific) on 9.6 cm^2 6-well plates (ThermoFisher Scientific). Real-time oxygen sensing was done using the SensorDish Reader from Applikon Biotechnology as described previously with T84 cells plated on 0.33 cm^2 transwell inserts (Corning, 0.4 μm).[12] All MCPA treatments included a 2 h pretreatment with MCPA before treatment with butyrate.
(§5) Metabolites Extractions and HPLC-DAD: Cell and colon tissue metabolites were extracted and analyzed as previously described with minor variations.[61],[62] The metabolites were detected by absorption at wavelengths of 210, 254, and 280 nm, with their absorbance spectra and retention times verified by co-injection with authentic standards. Metabolites for HPLC-ESI MS analyses were resuspended in deionized water (pH 7.2).
HPLC-ESI MS: Analyses were performed on an Agilent Technologies 1260 Infinity II LC/MSD iQ with electrospray ionization (ESI) mass detection. Negative ion mass-to-charge ratios (m/z) were scanned from 50 to 500. The metabolite extracts were chromatographed using a Sepax Carbomix column (Pb-Np5:8%, 5 μm, non-porous, 4.6 × 300 mm) (mobile phase A: water; mobile phase B: acetonitrile; column temperature, 75°C). Chromatographic separation was performed using a combination of isocratic and gradient methods, including column washing and equilibration periods at the end (0 min: 100% A, 0.12 mL/min; 60 min: 100% A, 0.12 mL/min; 70 min: 70% A, 0.5 mL/min; 145 min: 70% A, 0.5 mL/min; 150 min: 100% A, 0.5 mL/min; 164 min, 100% A, 0.5 mL/min; 165 min, 100% A, 0.12 mL/min; 170 min, 100% A, 0.12 mL/min).

murine colon tissue [5] = assay: Tributyrin oral gavage in antibiotic-treated SCFA-depleted mice; type: in vivo
Description: as §1, §2, §3

rat hepatocytes = system: rat hepatocytes; parameters: method as in PMID 9124539; details: cited from earlier work
T84 cells [6] = assay: Butyrate metabolism and oxygen consumption in T84 cells; type: cell-based
Description: as §4, §5

[7] = parameters: method as in PMID 10321503; details: mice, oral gavage with tributyrin, 1 h after dosing; cited from earlier work
[8] = 1 μM PHD2_181-402, 10 μM 2-OG, 10 μM Fe(II), 10 μM HIF-1α547-581 peptide, 100 μM ascorbic acid, 10-minute reaction, calculated from measured IC50 accounting for substrate conversion, error SEM

| IC50 (PHD2_181-402 [1]; [8]) | fold less effective at inhibiting PHD2_181-402 (compared to butyrate) (PHD2_181-402 [1]) | binding to PHD2_181-402 (WaterLOGSY signal) (PHD2_181-402 [2]) | Structure (SMILES) | HDAC inhibition (HDACs) | also measured |
| --- | --- | --- | --- | --- | --- |
| 50 ± 10 mM | ~ 10 fold | no binding | CC(=O)O [Acetate] | none |  |
| 77 ± 6 mM |  |  | CCC(CC)C(=O)O [2-Ethylbutyrate] |  |  |
| 60 ± 10 mM | ~ 10 fold | no binding | CCC(=O)O [Propionate] | lesser degrees of HDAC inhibition |  |
|  | ~ 3 fold | no binding | CCCCC(=O)O [Valerate] | lesser degrees of HDAC inhibition | IC50 (PHD2_181-402 [1]): 16 ± 3 mM |
| 1.9 ± 0.5 mM |  |  | COC(=O)CNC(=O)C(=O)OC [DMOG, dimethyloxalylglycine, reference compound] |  | change of IC50 with increasing 2-OG (PHD2_181-402 [1]; 2-OG at 1, 5, 10, 40 or 100 µM): increased significantly |

More lines, now with the values behind:

| Structure (SMILES) | IC50 (PHD2_181-402 [1]; [8]) | fold less effective at inhibiting PHD2_181-402 (compared to butyrate) (PHD2_181-402 [1]) | binding to PHD2_181-402 (WaterLOGSY signal) (PHD2_181-402 [2]) | HDAC inhibition (HDACs) | also measured |
| --- | --- | --- | --- | --- | --- |
| CC(O)CC(=O)O (stereo not shown) [3-Hydroxybutyrate] | 14 ± 1 mM |  |  |  |  |
| CCCCCC(=O)O [Hexanoate] |  | ~ 3 fold |  | lesser degrees of HDAC inhibition | IC50 (PHD2_181-402 [1]): 17 ± 3 mM |
| O=C(O)CNC(=O)c1c(O)c2ccccc2n(Cc2ccccc2)c1=O [IOX2, reference compound] |  |  |  |  | mRNA expression of HIF-1α targets Bnip3, Bnip3l, Glut1 (murine colon tissue [3]; colon tissue): rescued; colon tissue 2-OG levels (murine colon tissue [3]): rescued; 2-OG levels compared to control (T84 cells [4]): lesser extent than butyrate |
| C=C1CC1CC(=O)O (stereo not shown) [MCPA, methylene cyclopropyl acetic acid] |  |  |  |  | colon tissue butyrate level compared to tributyrin alone (murine colon tissue [5]; 60 mM MCPA rectal gavage 4 h in mice given tributyrin): significantly increased; reduction of acetyl-CoA levels (rat hepatocytes): 70–90%; butyrate metabolism (T84 cells [6]; 600 μM butyrate with 1 mM MCPA, 0 to 6 h): reduced butyrate metabolism; butyrate-associated oxygen consumption (T84 cells [6]; 5 mM butyrate with 1 mM MCPA, 30 min): eliminated the increase in oxygen consumption |
| CCCC(=O)OCC(COC(=O)CCC)OC(=O)CCC [tributyrin] |  |  |  |  | HIF-1α protein (murine colon tissue [5]; epithelial scrapings and whole-colon tissue, tributyrin 200 µL, 3 d, with or without MCPA): rescued; colon tissue 2-OG levels (murine colon tissue [5]; tributyrin 200 µL, 3 d, with or without MCPA): recovered; colon tissue butyrate levels (murine colon tissue [5]; tributyrin 200 µL, 3 d, with or without MCPA, versus antibiotics (glycerol control)): rescued; HIF-1α target gene Bnip3l mRNA (murine colon tissue [5]; whole-colon tissue and epithelial scrapings, tributyrin 200 µL oral gavage daily for 3 d, with or without 60 mM MCPA rectal 4 h): normalized; plasma butyrate concentrations [7]: > 1 mM |
